# Source: patent US11986530B2, “Drug composition for parenteral administration” (THERABIOPHARMA INC., priority 2016, dated 2024)
# Legend:
# [1] = test system: KBM-5; settings: KBM-5, in vitro; cited from earlier work
# [2] = test system: Jurkat cells; settings: in vitro; cited from earlier work
# [3] = test system: U266; settings: U266, in vitro; cited from earlier work
# [4] = test system: A549; settings: A549, in vitro; cited from earlier work
# [5] = test system: human hepatocellular carcinoma cell lines (HepG2 cells); settings: cited from earlier work
# [6] = cited from earlier work
# [7] = Intravenous administration test: concentration of curcumin conjugates and free curcumin in plasma; assay type: in vivo, SD rats; settings: rat
# Experimental: As the test animals, 9-week old SD rats (male, with a body weight of 330 to 360 g, CHARLES RIVER LABORATORIES JAPAN, INC.) were used.
# The intravenous administration was performed as follows: a predetermined amount of the curcumin monoglucuronide prepared in Production Example 1 was dissolved into water for injection so as to be 30 mg/kg; and the obtained preparation was administered intravenously to each of the test animals (n=5) fasted for 12 hours or more before the administration via an indwelling catheter in the femoral artery of each of the test animals. In this regard, the catheter was indwelled in the femoral artery under isoflurane anesthesia on the day of administration and blood collection.
# Blood was collected via a catheter from the femoral artery of each of test animals by using a heparin-treated syringe under the restraint condition in a Ballman cage without anesthesia. In this regard, around 0.6 mL of blood was collected after each lapse of 1, 3, 5, 10, 15, 30, 60, 120, 240 and 480 minutes from the start of intravenous administration, and the collected blood was centrifuged (at 3,000 rpm, for 10 minutes, at 4° C.) to obtain the plasma.
# The concentration of each of the curcumin conjugate and free curcumin in plasma was determined by the following methods.
# Further, this fractionation process was repeated twice.
# In this regard, in the following test, a supernatant liquid prepared by using a β-glucuronidase solution was used as an enzyme-treated sample, and a supernatant liquid prepared by using distilled water in place of the β-glucuronidase solution was used as a non-enzyme-treated sample.
# By analyzing 2 μL of the enzyme-treated or non-enzyme-treated sample prepared in the above-described “a. Pretreatment” using LC-MS/MS (manufactured by Shimadzu Corporation), the concentration of each of the curcumin conjugate and free curcumin in plasma was determined.
# That is, by measuring the concentration of the curcumin contained in the enzyme-treated sample that had been obtained by the treatment with β-glucuronidase, the total concentration of curcumin in plasma was measured.
# On the other hand, by measuring the concentration of the curcumin in the non-enzyme-treated sample that had not been treated with β-glucuronidase, the concentration of free curcumin in plasma was measured.
# Further, by subtracting the concentration of free curcumin from the total concentration of curcumin, the concentration of the curcumin conjugates contained in plasma was calculated.
# In this regard, the LC-MS/MS analysis conditions were set to be a LC column of Atlantis T3 (2.1×150 mm, 3 μm, manufactured by Waters), a column temperature of 40° C., a flow rate of 0.2 mL/min, and a mobile phase of A of a 0.1% formic acid aqueous solution and B of 0.1% formic acid/acetonitrile, and the gradient elution was performed under the following conditions (Table 1). In addition, the MS analysis conditions were set to be an ionization mode of […] (ESI), Positive, a measurement mode of Multiple Reaction Monitoring (MRM), curcumin of 369.1→177.2 (m/z), and mepronil of 270→119 (m/z), and the evaluation was performed.
# [8] = test system: colorectal cancer cells derived from adult human colon HCT116; experiment: Anti-tumor effect by intravenous administration of curcumin conjugates (tumor size, HCT116 transplanted mice); assay type: in vivo, BALB/cAnNcr j-nu/nu (homo) mice; settings: parenteral (i.v.) administration, 30 or 90 mg/kg, versus control group
# From the text: 1×10^7 or 4×10^6 colorectal cancer cells derived from adult human […] colon HCT116 (ATCC No. CCL-247) were transplanted subcutaneously into the flank of each of the test animals by using a 27 G injection needle.
# In this regard, in the control group, mice to which water for injection excluding curcumin monoglucuronide had been administered intravenously were used.
# For the tumor size, after each lapse of 0, 4, 7, 11 and 14 days from the start of administration or after each lapse of 0, 4, 7, 11, 14, 18 and 21 days from the start of administration, the length, width and height of the tumor were measured by using a vernier caliper, and the tumor size was calculated by the following equation. Tumor size (mm^3)=length×width×height×0.5 (5) Concentration of Curcumin Conjugates and Free Curcumin in Tumor Tissue
# [9] = Concentration of curcumin conjugates and free curcumin in tumor tissue; assay type: in vivo, BALB/cAnNcr j-nu/nu (homo) mice; settings: mouse, day 21
# Experimental: For the mice (n=8) inoculated with the 4×10^6 cancer cells (HCT116), the tumor after the lapse of 2 hours from the intravenous administration of curcumin monoglucuronide (90 mg/kg) after the lapse of 21 days from the start of inoculation was removed from each of the mice, the removed tumor was rinsed with a saline solution, and then immediately frozen in liquid nitrogen, and the frozen tumor was stored in an ultra-low temperature tank at −80° C.
# The frozen and stored tumor was thawed while cooling in ice, an adequate amount of a saline solution was added to the thawed tumor, and the thus obtained tumor was homogenized with a glass homogenizer, the concentration of each of the curcumin conjugates and free curcumin in the pulverized tumor obtained as described above were measured to examine the concentration of each of the curcumin conjugates and free curcumin contained in the tumor tissue.
# [10] = test system: β-glucuronidase; settings: 10 μL of 2.45 μg/mL substrate, pH 5.0, 37° C., 1 hour, n=3
# Experimental: In this regard, as a control, curcumin monoglucuronide was used for the examination.
# In addition, as the curcumin diglucuronide, commercially available curcumin diglucuronide (manufactured by SynInnova Laboratories Inc.) was used.
# Next, into the resultant mixture, 0.5 mL of chloroform was added, and the mixture was stirred for 1 minute with a vortex mixer, and then the stirred mixture was treated for 15 minutes by using an ultrasonic generator, and the treated mixture was fractionated into a chloroform layer and a water layer by centrifugation (10,000×g, for 5 minutes, at room temperature). Further, this fractionation process was repeated twice. After that, the chloroform layer was collected, and dried and solidified by distilling off the solvent with a vacuum centrifugal concentrator, and to the dried and solidified matter, 100 μL of 50% (v/v) methanol was added, and then the resultant mixture was centrifuged (10,000×g, for 5 minutes, at room temperature) to collect a supernatant liquid, and the collected supernatant liquid was taken as an enzyme-treated sample.
# In 2 μL of the enzyme-treated sample prepared in the above (2), free curcumin was measured by the method described in “b.
smiles,measurement,setting,value
COc1cc(/C=C/C(=O)/C=C(O)/C=C/c2ccc(O)c(OC)c2)ccc1O [curcumin],cell growth inhibitory effect,[1],has an effect of suppressing the growth of these cells
same,cell growth inhibitory effect,[2],has an effect of suppressing the growth of these cells
same,cell growth inhibitory effect,[3],has an effect of suppressing the growth of these cells
same,cell growth inhibitory effect,[4],has an effect of suppressing the growth of these cells
same,cell growth inhibitory effect,[5],found the cell growth inhibitory effect
same,solubility in water,[6],hardly soluble in water
COc1cc(/C=C/C(=O)CC(=O)/C=C/c2ccc(O[C@@H]3O[C@H](C(=O)O)[C@@H](O)[C@H](O)[C@H]3O)c(OC)c2)ccc1O [curcumin monoglucuronide],Cmax (ng/mL) of curcumin conjugates in plasma,[7]; 30 mg/kg i.v.,160492 ± 19156 ng/mL
same,AUC 0.02-8 h (ng·h/mL) of free curcumin in plasma,[7]; 30 mg/kg i.v. of conjugate,2780 ± 962 ng·h/mL
same,Cmax (ng/mL) of free curcumin in plasma,[7]; 30 mg/kg i.v. of conjugate,10143 ± 3832 ng/mL
same,concentration of free curcumin in plasma,"[7]; 30 mg/kg i.v. of conjugate, 1 minute after administration",10143 ± 3832 ng/mL
same,concentration of free curcumin in plasma,"[7]; 30 mg/kg i.v. of conjugate, 3 minutes",7562 ± 2903 ng/mL
same,concentration of free curcumin in plasma,"[7]; 30 mg/kg i.v. of conjugate, 5 minutes",5707 ± 2539 ng/mL
same,concentration of free curcumin in plasma,"[7]; 30 mg/kg i.v. of conjugate, 10 minutes",3596 ± 1233 ng/mL
same,concentration of free curcumin in plasma,"[7]; 30 mg/kg i.v. of conjugate, 15 minutes",2764 ± 796 ng/mL
same,concentration of free curcumin in plasma,"[7]; 30 mg/kg i.v. of conjugate, 30 minutes",1605 ± 592 ng/mL
same,concentration of free curcumin in plasma,"[7]; 30 mg/kg i.v. of conjugate, 1 hour",568 ± 197 ng/mL
same,concentration of free curcumin in plasma,"[7]; 30 mg/kg i.v. of conjugate, 2 hours",117 ± 39 ng/mL
same,concentration of free curcumin in plasma,"[7]; 30 mg/kg i.v. of conjugate, 4 hours",16 ± 5 ng/mL
same,concentration of free curcumin in plasma,"[7]; 30 mg/kg i.v. of conjugate, 8 hours",6 ± 14 ng/mL
same,concentration of curcumin conjugates in plasma,"[7]; 30 mg/kg i.v., 1 minute after administration",160492 ± 19156 ng/mL
same,concentration of curcumin conjugates in plasma,"[7]; 30 mg/kg i.v., 3 minutes",77803 ± 6442 ng/mL
same,concentration of curcumin conjugates in plasma,"[7]; 30 mg/kg i.v., 5 minutes",80489 ± 7161 ng/mL
same,concentration of curcumin conjugates in plasma,"[7]; 30 mg/kg i.v., 10 minutes",46853 ± 10700 ng/mL
same,concentration of curcumin conjugates in plasma,"[7]; 30 mg/kg i.v., 15 minutes",22918 ± 5271 ng/mL
same,concentration of curcumin conjugates in plasma,"[7]; 30 mg/kg i.v., 30 minutes",10191 ± 3502 ng/mL
same,concentration of curcumin conjugates in plasma,"[7]; 30 mg/kg i.v., 1 hour",4363 ± 1354 ng/mL
same,concentration of curcumin conjugates in plasma,"[7]; 30 mg/kg i.v., 2 hours",1493 ± 371 ng/mL
same,concentration of curcumin conjugates in plasma,"[7]; 30 mg/kg i.v., 4 hours",403 ± 120 ng/mL
same,concentration of curcumin conjugates in plasma,"[7]; 30 mg/kg i.v., 8 hours",78 ± 39 ng/mL
same,effect on tumor growth (in words),[8],significantly suppressing the tumor growth
same,concentration of the free curcumin in the tumor tissue,[9]; 2 hours after 90 mg/kg i.v. of conjugate,1464.5 ± 840.9 ng/g
same,concentration of the curcumin conjugates in the tumor tissue,[9]; 2 hours after 90 mg/kg i.v.,605.4 ± 465.5 ng/g
COc1cc(/C=C/C(=O)CC(=O)/C=C/c2ccc(O[C@@H]3O[C@H](C(=O)O)[C@@H](O)[C@H](O)[C@H]3O)c(OC)c2)ccc1O[C@@H]1O[C@H](C(=O)O)[C@@H](O)[C@H](O)[C@H]1O [curcumin diglucuronide],concentration of the curcumin contained in the enzyme-treated sample,[10],82.4 ± 0.8 ng/mL
same,cell growth inhibitory effect,[1],there is no such an effect
same,cell growth inhibitory effect,[2],there is no such an effect
same,cell growth inhibitory effect,[3],there is no such an effect
same,cell growth inhibitory effect,[4],there is no such an effect
